# Patent publication US20260364175A1, “COMPOSITIONS FOR DRUG ADMINISTRATION” (Aegis Therapeutics, LLC, priority 2018, published 2026)
# Entries after “also recorded” stand apart in the source; their conditions may differ.
# Key:
# [1] = fast-dispersing tablets 50 mg with 1% to 2% alkylsaccharide
# blood glucose [2] = assay: Oral liraglutide with Intravail A3, blood glucose under dietary sugar challenge; type: in vivo, human; details: Intravail A3 (FIG. 11)
# Method: Procedure was as follows. […] Composition was mixed with disposable plastic dropper. 40 grams of dietary sugar was ingested and 60 minutes allowed to pass. Blood glucose was measured (upper arm just above elbow on left arm) using meter=To. Deposit composition on back of tongue and swallow. Blood glucose level was measured and recorded at T=10, 20, 30, 40, 55, 70, 80 and 90 min.
# human nasal epithelium = assay: Nasal mucosa irritation
# [3] = system: Staphylococcus aureus (ATCC No. 6538); assay: Antibacterial activity, log reduction of cfu; type: cell-based
# Source text: (§1) The viable microorganisms used in the invention were not more than five passages removed from the original ATCC culture. As described herein, one passage is defined as the transfer of organisms from an established culture to fresh medium and all transfers are counted.
# (§2) Cultures received from the ATCC are resuscitated according to the directions provided by the ATTC. Cells grown in broth were pelleted by centrifugation, resuspended in 1/20th the volume of fresh maintenance broth, and combined with an equal volume of 20% (v/v in water) sterile glycerol. Cells grown on agar were scraped from the surface into the maintenance broth also containing 10% glycerol broth. Small aliquots of the suspension were dispensed into sterile vials and the vials were stored in liquid nitrogen or in a mechanical freezer at a temperature no higher than about −50 °C. When a fresh seed-stock vial was required, it was removed and used to inoculate a series of working stock cultures. These working stock cultures were then used periodically (each day in the case of bacteria and yeast) to start the inoculum culture.
# (§3) The culture conditions for the inoculum culture is substantially as described in Table IV. For example, suitable media can include but is not limited to, Soybean-Casein Digest or Sabouraud Dextrose Agar Medium. […]
# (§4) The suspension should be refrigerated if it is not used within 2 hours. To confirm the initial cfu per mL estimate, the number of cfu per mL in each suspension was determined using the conditions of media and microbial recovery incubation times listed in Table IV (e.g., from about 3 to about 7 days). This value serves to calibrate the size of inoculum used in the test. The bacterial and yeast suspensions were used within 24 hours of harvest; whereas the fungal preparation can be stored under refrigeration for up to 7 days.
# (§5) To determine which alkylglycoside formulations have antibacterial activity, the formulations were prepared in phosphate buffered saline (PBS) at pH 7. As a source of nutrition, either 1.5 mg/mL bovine serum albumin (BSA; see Tables V and VI) or 1 mg/mL of PYY was added (see Table VII) to the medium. BSA (CAS Number: 9048-46-8) was obtained from Sigma-Aldrich, St. Louis, MO, USA, n-dodecyl-4-O-α-D-glucopyranosyl-β-D-glucopyranoside and n-tetradecyl-4-O-α-D-glucopyranosyl-β-D-glucopyranoside were obtained from Anatrace Inc., Maumee, OH, USA, and PYY was obtained from Bachem California Inc., Torrance, CA, USA.
# (§6) Antibacterial activity of the alkylglycosides were conducted in four sterile, capped bacteriological containers of suitable size into which a sufficient volume of alkylglycoside solution had been transferred. Each container was inoculated with one of the prepared and standardized inoculums and mixed. The volume of the suspension inoculum was between about 0.5% and about 1.0% of the volume of the alkylglycoside solution. […]. To determine the level of inhibition of growth, or reduction of growth based on a logarithmic scale, the initial concentration of viable microorganisms in each test preparation was estimated based on the concentration of microorganisms in each of the standardized inoculum as determined by the plate-count method. The inoculated containers were then incubated at about 22.5 °C±2.5. The growth or non-growth of the microorganisms in each culture/container were again determined at day 14 and day 28. The number of cfu present in each calculation was determined by the plate-count procedure standard in the art for the applicable intervals. The change in the orders of magnitude of bacterium and/or fungi was then determined by subtracting the first calculated log 10 values of the concentrations of cfu per mL present at the start or beginning (e.g., day 0), from the log 10 values of the concentration of cfu per mL for each microorganism at the applicable test intervals (e.g., day 14 and day 28; see Tables V, VI and VII).
# [4] = system: Escherichia coli (ATCC No. 8739); assay: Antibacterial activity, log reduction of cfu; type: cell-based; details: 0.2%; day 28
# Source text: as §1, §2, §3, §4, §5, §6
# blood glucose [5] = assay: Ocular administration of insulin plus absorption enhancer, blood glucose in anesthetized rats; type: in vivo, rat (male Sprague-Dawley)
# [6] = system: Candida albicans (ATCC No. 10231); assay: Antimicrobial activity, log reduction of cfu; type: cell-based
# Source text: as §1, §2, §3, §4, §5, §6
# [7] = system: Aspergillus niger (ATCC No. 16404); assay: Antimicrobial activity, log reduction of cfu; type: cell-based
# Source text: as §1, §2, §3, §4, §5, §6
# blood glucose [8] = assay: Insulin plus tetradecylmaltoside as eye drops then nose drops, blood glucose in rats; type: in vivo, rat
# Source text: Tetradecylmaltoside (TDM) in combination with insulin also produced a drop in blood D-glucose levels when administered in the form of a drop intranasally as well as via a drop by the ocular route. […] Thus, intranasal delivery and administration of the alkyl saccharide with drug results in lowering of blood glucose levels.
# [9] = whole-swallowed tablet, oral; cited from earlier work
# clinical = details: human, in vivo
# [10] = 10 mg fast-dispersing tablet with alkylsaccharide, buccal
# [11] = Raloxifene pharmacokinetics; type: in vivo
# Method: The recommended dosage is one 60 mg tablet daily. […]. […].
# [12] = cited from earlier work
# blood glucose [13] = assay: Ocular administration of glucagon plus surfactant, blood glucose in rats; type: in vivo, rat; details: eye drops, 0.5% surfactant plus glucagon (30 μg)
# blood glucose [14] = details: previous studies; cited from earlier work
# [15] = Oral phenylephrine tablet bioavailability in a canine model; type: in vivo, dog; details: compressed tablets
# Method: In a canine model, subjects were dosed orally with various phenylephrine (PE) tablet formulations, and blood samples were taken to determine the rate of parent phenyl ethyl phenylephrine absorption. Blood levels of parent phenylephrine were measured. Three subject groups were created with each alkylsaccharide test group containing five subjects in each test group. All subject groups received 10 mg of phenylephrine as a single tablet. Each subject was in the fasting state for overnight and two hours post dose. Blood samples were taken at pre-dose, 5, 10, 15, 30, 45 min., 1, 2, and 3 hours.
# Comparator was the standard 30 mg (total weight including excipients) phenylephrine tablet was no absorption enhancer. Group number 2 tablets contain the alkylsaccharide designated A3, which is n-dodecyl-beta-D-maltoside in the amounts of 2.5 mg, 5 mg, and 7.5 mg, respectively. Group number three tablets contain the alkylsaccharide designated B3, which is sucrose monododecanoate, in the amounts of 5 mg, 10 mg, and 20 mg, respectively.
# [16] = cited from earlier work; remark: listed apart in the source
# [17] = aqueous liquid with SDS and an organic acid; cited from earlier work
# food intake = details: injection, on average; cited from earlier work
# [18] = formulations specifically optimized for oral delivery; cited from earlier work
# mucociliary surfaces = details: far below concentrations used in intranasal formulations; cited from earlier work
molecule,measurement,setting,value
CN(C)CCOC(c1ccccc1)c1ccccc1 [Diphenhydramine],onset of action,[1],more rapid onset of action
CCCCCCCCCCCCCCCC(=O)N[C@@H](CCC(=O)NCCCC[C@H](NC(=O)[C@H](C)NC(=O)[C@H](C)NC(=O)[C@H](CCC(N)=O)NC(=O)CNC(=O)[C@H](CCC(=O)O)NC(=O)[C@H](CC(C)C)NC(=O)[C@H](Cc1ccc(O)cc1)NC(=O)[C@H](CO)NC(=O)[C@H](CO)NC(=O)[C@@H](NC(=O)[C@H](CC(=O)O)NC(=O)[C@H](CO)NC(=O)[C@@H](NC(=O)[C@H](Cc1ccccc1)NC(=O)[C@@H](NC(=O)CNC(=O)[C@H](CCC(=O)O)NC(=O)[C@H](C)NC(=O)[C@@H](N)Cc1cnc[nH]1)[C@@H](C)O)[C@@H](C)O)C(C)C)C(=O)N[C@@H](CCC(=O)O)C(=O)N[C@@H](Cc1ccccc1)C(=O)N[C@H](C(=O)N[C@@H](C)C(=O)N[C@@H](Cc1c[nH]c2ccccc12)C(=O)N[C@@H](CC(C)C)C(=O)N[C@H](C(=O)N[C@@H](CCCNC(=N)N)C(=O)NCC(=O)N[C@@H](CCCNC(=N)N)C(=O)NCC(=O)O)C(C)C)[C@@H](C)CC)C(=O)O [Liraglutide],dose response,blood glucose [2],positive dose response
"CCCCCCCCCCCCCCO[C@@H]1O[C@H](CO)[C@@H](O[C@H]2O[C@H](CO)[C@@H](O)[C@H](O)[C@H]2O)[C@H](O)[C@H]1O [Tetradecyl Maltoside, n-tetradecyl-4-O-α-D-glucopyranosyl-β-D-glucopyranoside]",irritation of the nasal mucosa,"human nasal epithelium; […] in OTC nasal saline, daily, 33 days",no observable irritation of the nasal mucosa
same,log reduction at 0.2 %,"[3]; ATCC6538, 336 h",≥ 5
same,log reduction at 0.2 %,"[3]; ATCC6538, 672 h",≥ 5
same,growth from initial count,[4],No growth
same,effect on blood glucose / ocular insulin absorption,blood glucose [5]; 0.5% enhancer with 0.2% insulin eye drops,effective as absorption enhancers
same,effect on ocular insulin absorption,blood glucose [5]; […] enhancer with insulin eye drops,effective as absorption enhancers
same,effect on ocular insulin absorption (alkyl chain length comparison),blood glucose [5]; alkylmaltosides with insulin eye drops,more effective
same,log reduction at 0.2 %,"[6]; ATCC10231, 336 h",3
same,log reduction at 0.2 %,"[6]; ATCC10231, 672 h",≥ 5.4
same,growth from initial count,"[7]; 0.2%, day 28",No growth
same,log reduction at 0.2 %,"[7]; Aspergillus niger, ATCC16404, 336 h",0.5
same,Blood Glucose,"blood glucose [8]; 0 min, insulin eye drops with […]",322 mg/dL
same,effect on blood glucose,blood glucose [8]; 0.2% insulin eye drops with […] TDM,prompt and prominent drop in blood glucose levels
same,Blood Glucose,"blood glucose [8]; 15 min, insulin eye drops with […]",335 mg/dL
same,Blood Glucose,"blood glucose [8]; 30 min, insulin eye drops with […]",276 mg/dL
same,Blood Glucose,"blood glucose [8]; 45 min, insulin eye drops with […]",221 mg/dL
same,Blood Glucose,"blood glucose [8]; 60 min, insulin eye drops with […]",212 mg/dL
same,Blood Glucose,"blood glucose [8]; 75 min, insulin eye drops with […]",167 mg/dL
same,Blood Glucose,"blood glucose [8]; 90 min, insulin eye drops with […]",174 mg/dL
same,Blood Glucose,"blood glucose [8]; 120 min, insulin eye drops with […]",208 mg/dL
same,Blood Glucose,"blood glucose [8]; 135 min, after insulin nose drops with 0.5%",129 mg/dL
same,Blood Glucose,"blood glucose [8]; 150 min, after insulin nose drops with 0.5%",74 mg/dL
same,Blood Glucose,"blood glucose [8]; 165 min, after insulin nose drops with 0.5%",76 mg/dL
same,Blood Glucose,"blood glucose [8]; 180 min, after insulin nose drops with 0.5%",68 mg/dL
same,Blood Glucose,"blood glucose [8]; […], insulin eye drops with […]",167 mg/dL
Cc1cc2c(s1)Nc1ccccc1N=C2N1CCN(C)CC1 [olanzapine],time to peak concentrations,[9],approximately 6 hours
same,Tmax,clinical; 10 mg,0.25 to 0.75 h
same,Tmax,clinical; po,~6 h
same,hepatic extraction ratio,clinical; po,~0.4
same,first-pass effect metabolism,[10],substantially reduced first-pass effect metabolism
O=C(c1ccc(OCCN2CCCCC2)cc1)c1c(-c2ccc(O)cc2)sc2cc(O)ccc12 [raloxifene],circulating inactive raloxifene glucuronide,"[11]; fast-dispersing tablet 10 mg or less, 0.5% to 5% dodecyl maltoside, buccal",less circulating inactive raloxifene glucuronide
same,bioavailability,"[11]; human, in vivo, fast-dispersing 60 mg tablet (without alkylsaccharide), read-out: absolute bioavailability",~2%
same,water solubility,[12],approx. 0.25 mg/L
"CC1(C)[C@@H](O[C@@H]2OC[C@H](O[C@@H]3OC[C@@H](O)[C@H](O)[C@H]3O)[C@H](O[C@H]3O[C@H](CO)[C@@H](O)[C@H](O)[C@H]3O)[C@H]2O[C@@H]2O[C@H](CO)[C@@H](O)[C@H](O)[C@H]2O[C@H]2O[C@H](CO)[C@@H](O)[C@H](O)[C@H]2O)CC[C@]2(C)[C@H]3CCC45OCC6(CC[C@@](C)(C=O)C[C@@H]64)[C@H](O)C[C@@]5(C)[C@]3(C)CC[C@@H]12 (stereo partly shown) [saponin, reference compound]",effect on ocular glucagon absorption / blood D-glucose,blood glucose [13],effective; also recorded: rises significantly
same,stimulation of insulin absorption from the eye,blood glucose [14],stimulated
"CCCCCCCCCCCC(=O)OC[C@H]1O[C@H](O[C@]2(CO)O[C@H](CO)[C@@H](O)[C@@H]2O)[C@H](O)[C@@H](O)[C@@H]1O [sucrose dodecanoate, sucrose monododecanoate]",irritation of nasal epithelium,human nasal epithelium; 47 days,no observable irritation was detected
same,increase of oral bioavailability of phenylephrine,[15],up to 50%
same,amount consumable without observable adverse effect,[16]; 70 kilogram person,1400-2100 grams per day
same,acceptable daily intake for humans,[16]; about 1% of the NOAEL,14-21 grams per day
same,NOAEL,[16]; in vivo,20-30 grams/kilogram/day
Calcitonin: calcitonin,stability,[17],at least 6 months
PYY: gut hormone fragment peptide PYY3-36,reduction of food eaten,food intake,30%
Parathyroid hormone: parathyroid hormone,oral bioavailability,[18],2.1%
benzalkonium chloride,disruption of mucociliary surfaces,mucociliary surfaces,significant disruption of the mucociliary surfaces
